From patent publication US8420819B2, “Process for optimizing the particle size of an active pharmaceutical ingredient by crystallization” (Boehringer Ingelheim International GmbH, priority 2009, dated 2013)

Columns and labels:
[1] = Particle size of co-crystal batches, measured by Sympatec laser light diffraction; format: physicochemical; conditions: for Particle Size D10: scale-up batches from MEK/heptane crystallization, Sympatec laser light diffraction
[2] = Powder properties (flowability, bulk density) of crystallized particles; format: physicochemical; conditions: MEK/heptane process compared to particles produced from other solvent systems

CCS(=O)(=O)c1cc2cc(C[C@](O)(CC(C)(C)c3ccc(F)cc3C(N)=O)C(F)(F)F)[nH]c2cn1.O=P(O)(O)O [2-[(3R)-3-(5-ethanesulfonyl-1H-pyrrolo[2,3-c]pyridin-2-ylmethyl)-4,4,4-trifluoro-3-hydroxy-1,1-dimethylbutyl]-5-fluorobenzamide phosphoric acid co-crystal]
D90 ([1]; MEK/heptane, initial concentration approximately 0.11-0.14 g/mL, seeded, high supersaturation): < 10 μm | D90 ([1]; approximately 1.0 wt % water in the solution (between about 0.7% and 1.2%) (FIG. 2)): 25-30 μm | particle size of the product, D90 ([1]; crystallization as part of the synthesis, from acetic acid or anisole solvate, 50.0 g, KF <0.2 wt %): about 7 μm | D90 ([1]; crystallization with 0.1 wt % water (FIG. 1)): 6 μm | D90 ([1]; crystallization with 1.1 wt % water (FIG. 2)): 26 μm | D90 ([1]; crystallization with 2.0 wt % water (FIG. 3)): 50 μm | D90 ([1]; crystallization with <0.5 wt % water in the solution (FIG. 1)): 5-10 μm | Particle Size D10 ([1]; listed as Kilo lab batch, 1.8 kg, from acetic acid solvate): 1.19 μm | Particle Size D10 ([1]; listed as Lab batch 1 from acetic acid solvate): 1.29 μm | Particle Size D10 ([1]; listed as Lab batch 2 from acetic acid solvate): 1.28 μm | Particle Size D10 ([1]; listed as Lab batch 3 from acetic acid solvate): 1.54 μm | Particle Size D10 ([1]; listed as Lab batch from new synthesis from acetic acid solvate): 1.17 μm | Particle Size D10 ([1]; listed as Lab batch, from anisole solvate): 1.31 μm | Particle Size D10 ([1]; listed as Pilot plant batch A, 11 kg, from anisole solvate): 1.61 μm | Particle Size D10 ([1]; listed as Pilot plant batch B, 22 kg, from anisole solvate): 1.67 μm | Particle Size D10 ([1]; listed as Pilot plant batch, 9 kg, from acetic acid solvate): 1.26 μm | particle size of the product, D90 ([1]; standalone re-crystallization process, 50.0 g co-crystal, KF ≦0.2 wt %): about 7 μm | powder properties (flowability, bulk density) [2]: excellent powder properties
